How the values were obtained:
Type in all cases: in vivo
[1] = test system: common ragweed (Ambrosia artemisiifolia L., AMBEL); experiment: Post-emerge greenhouse herbicide test, phytotoxicity rating; conditions: 14 days after application, scale 0-100
Procedure, shortened: (§1)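 Plants at the 2-3 leaf stage, sown 8-21 days earlier, were track-sprayed post-emergence with compound in acetone plus 0.25% v/v non-ionic surfactant at 63-1000 g ai/ha (187 l/ha). Damage was rated at 14 days on a 0-100 scale (0 none, 100 all plants dead), for both crop injury and weed control.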

[2] = test system: soybean (Glycine max L., var. Pella 86, SOY); experiment: Post-emerge greenhouse test, crop damage rating; design: key to crop damage rating SOY: 0-100 scale: 0 = no damage, 100 = complete death of all plants; conditions: 14 days after application, scale 0-100
Procedure, shortened: as §1

[3] = test system: soybean (Glycine max L., var. Pella 86, SOY); experiment: Pre-emerge greenhouse test, crop damage rating; design: key to SOY crop damage rating: 0 = no damage, 100 = complete death of all plants; conditions: 14 days after application, rating scale 0-100
Procedure, shortened: (§2)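 Seeds sown in sandy loam one day before track-sprayer application of acetone solutions at 125–1000 g ai/ha (187 l/ha), then surface-watered to incorporate and bottom-watered. Injury scored visually at 14 days on a 0–100 scale (0 no damage, 100 complete death).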

[4] = test system: upland rice (Oryza sp., var.Tebonnet, RICE); experiment: Pre-emerge greenhouse test, crop damage rating; conditions: 14 days after application, rating scale 0-100
Procedure, shortened: as §2

[5] = test system: field corn (Zea mays L., var. Dekalb 535, CORN); experiment: Pre-emerge greenhouse test, crop damage rating; conditions: 14 days after application, rating scale 0-100
Procedure, shortened: as §2

[6] = test system: ivyleaf morningglory (Ipomoea hederacea, IPOHE); experiment: Pre-emerge greenhouse herbicide test, phytotoxicity rating; conditions: 14 days after application, rating scale 0-100
Procedure, shortened: as §2

[7] = test system: green foxtail (Setaria viridis, SETVI); experiment: as above; conditions: 14 days after application, rating scale 0-100
Procedure, shortened: as §2

[8] = test system: Johnsongrass (Sorghum halepense, SORHA); experiment: as above; conditions: 14 days after application, rating scale 0-100
Procedure, shortened: as §2

[9] = test system: velvetleaf (Abutilon theophrasti, ABUTH); experiment: as above; conditions: 14 days after application, rating scale 0-100
Procedure, shortened: as §2

[10] = test system: common ragweed (Ambrosia artemisiifolia L., AMBEL); experiment: as above; conditions: 14 days after application, rating scale 0-100
Procedure, shortened: as §2

[11] = test system: barnyardgrass (Echinochloa crusgalli, ECHCG); experiment: as above; conditions: 14 days after application, rating scale 0-100
Procedure, shortened: as §2

[12] = test system: large crabgrass (Digitaria sanguinalis, DIGSA); experiment: as above; conditions: 14 days after application, rating scale 0-100
Procedure, shortened: as §2

[13] = test system: lambsquarters (Chenopodium album, CHEAL); experiment: as above; conditions: 14 days after application, rating scale 0-100
Procedure, shortened: as §2

[14] = test system: redroot pigweed (Amaranthus retroflexus, AMARE); experiment: as above; conditions: 14 days after application, rating scale 0-100
Procedure, shortened: as §2

[15] = test system: sicklepod (Cassia obtusifolia, CASOB); experiment: as above; conditions: 14 days after application, rating scale 0-100
Procedure, shortened: as §2

[16] = test system: upland rice (Oryza sp., var.Tebonnet, RICE); experiment: Post-emerge greenhouse test, crop damage rating; conditions: 14 days after application, scale 0-100
Procedure, shortened: as §1

[17] = test system: field corn (Zea mays L., var. Dekalb 535, CORN); experiment: Post-emerge greenhouse test, crop damage rating; conditions: 14 days after application, scale 0-100
Procedure, shortened: as §1

[18] = test system: ivyleaf morningglory (Ipomoea hederacea, IPOHE); experiment: Post-emerge greenhouse herbicide test, phytotoxicity rating; conditions: 14 days after application, scale 0-100
Procedure, shortened: as §1

[19] = test system: green foxtail (Setaria viridis, SETVI); experiment: as above; conditions: 14 days after application, scale 0-100
Procedure, shortened: as §1

[20] = test system: Johnsongrass (Sorghum halepense, SORHA); experiment: as above; conditions: 14 days after application, scale 0-100
Procedure, shortened: as §1

[21] = test system: velvetleaf (Abutilon theophrasti, ABUTH); experiment: as above; conditions: 14 days after application, scale 0-100
Procedure, shortened: as §1

[22] = test system: barnyardgrass (Echinochloa crusgalli, ECHCG); experiment: as above; conditions: 14 days after application, scale 0-100
Procedure, shortened: as §1

[23] = test system: large crabgrass (Digitaria sanguinalis, DIGSA); experiment: as above; conditions: 14 days after application, scale 0-100
Procedure, shortened: as §1

[24] = test system: lambsquarters (Chenopodium album, CHEAL); experiment: as above; conditions: 14 days after application, scale 0-100
Procedure, shortened: as §1

[25] = test system: redroot pigweed (Amaranthus retroflexus, AMARE); experiment: as above; conditions: 14 days after application, scale 0-100
Procedure, shortened: as §1

[26] = test system: sicklepod (Cassia obtusifolia, CASOB); experiment: as above; conditions: 14 days after application, scale 0-100
Procedure, shortened: as §1

COc1nc(OC)nc(Oc2cc(-n3c(=O)n4n(c3=S)CCCC4)c(F)cc2Cl)n1 [Compound 8-34]
phytotoxicity rating AMBEL ([1]; rate 63 g ai/ha): 50
phytotoxicity rating AMBEL ([1]; rate 500 g ai/ha): 95
crop damage rating SOY ([2]; rate 63 g ai/ha): 50
crop damage rating SOY ([2]; rate 500 g ai/ha): 90
SOY crop damage rating ([3]; Rate 125 g al/ha): 10
SOY crop damage rating ([3]; Rate 500 g al/ha): 0
RICE crop damage rating ([4]; Rate 125 g al/ha): 20
RICE crop damage rating ([4]; Rate 500 g al/ha): 50
CORN crop damage rating ([5]; Rate 125 g al/ha): 0
CORN crop damage rating ([5]; Rate 500 g al/ha): 5
IPOHE phytotoxicity rating ([6]; Rate 125 g al/ha): 0
IPOHE phytotoxicity rating ([6]; Rate 500 g al/ha): 80
SETVI phytotoxicity rating ([7]; Rate 125 g al/ha): 80
SETVI phytotoxicity rating ([7]; Rate 500 g al/ha): 99
SORHA phytotoxicity rating ([8]; Rate 125 g al/ha): 20
SORHA phytotoxicity rating ([8]; Rate 500 g al/ha): 80
ABUTH phytotoxicity rating ([9]; Rate 125 g al/ha): 100
ABUTH phytotoxicity rating ([9]; Rate 500 g al/ha): 100
AMBEL phytotoxicity rating ([10]; Rate 125 g al/ha): 40
AMBEL phytotoxicity rating ([10]; Rate 500 g al/ha): 100
ECHCG phytotoxicity rating ([11]; Rate 125 g al/ha): 0
ECHCG phytotoxicity rating ([11]; Rate 500 g al/ha): 40
DIGSA phytotoxicity rating ([12]; Rate 125 g al/ha): 10
DIGSA phytotoxicity rating ([12]; Rate 500 g al/ha): 80
CHEAL phytotoxicity rating ([13]; Rate 125 g al/ha): 100
CHEAL phytotoxicity rating ([13]; Rate 500 g al/ha): 100
AMARE phytotoxicity rating ([14]; Rate 125 g al/ha): 100
AMARE phytotoxicity rating ([14]; Rate 500 g al/ha): 100
CASOB phytotoxicity rating ([15]; Rate 125 g al/ha): 0
CASOB phytotoxicity rating ([15]; Rate 500 g al/ha): 40
crop damage rating RICE ([16]; rate 63 g ai/ha): 0
crop damage rating RICE ([16]; rate 500 g ai/ha): 40
crop damage rating CORN ([17]; rate 63 g ai/ha): 5
crop damage rating CORN ([17]; rate 500 g ai/ha): 15
phytotoxicity rating IPOHE ([18]; rate 63 g ai/ha): 100
phytotoxicity rating IPOHE ([18]; rate 500 g ai/ha): 100
phytotoxicity rating SETVI ([19]; rate 63 g ai/ha): 20
phytotoxicity rating SETVI ([19]; rate 500 g ai/ha): 65
phytotoxicity rating SORHA ([20]; rate 63 g ai/ha): 0
phytotoxicity rating SORHA ([20]; rate 500 g ai/ha): 50
phytotoxicity rating ABUTH ([21]; rate 63 g ai/ha): 95
phytotoxicity rating ABUTH ([21]; rate 500 g ai/ha): 100
phytotoxicity rating ECHCG ([22]; rate 63 g ai/ha): 10
phytotoxicity rating ECHCG ([22]; rate 500 g ai/ha): 0
phytotoxicity rating DIGSA ([23]; rate 63 g ai/ha): 0
phytotoxicity rating DIGSA ([23]; rate 500 g ai/ha): 40
phytotoxicity rating CHEAL ([24]; rate 63 g ai/ha): 95
phytotoxicity rating CHEAL ([24]; rate 500 g ai/ha): 100
phytotoxicity rating AMARE ([25]; rate 63 g ai/ha): 50
phytotoxicity rating AMARE ([25]; rate 500 g ai/ha): 100
phytotoxicity rating CASOB ([26]; rate 63 g ai/ha): 30
phytotoxicity rating CASOB ([26]; rate 500 g ai/ha): 100

— patent US6479435B1, “Diaryl ethers and processes for their preparation and herbicidal and desiccant compositions containing them” (ISK Americas Incorporated, priority 1997, dated 2002)
